Holding throughout (experiment): Trk enzyme assay ([33P] incorporation into poly-EAY)
Common to all, as to format: biochemical

One experiment deals with TrkC WT (Homo sapiens, UniProt Q16288, S70N). As to conditions: wild-type TrkC enzyme; 22° C., 60 minutes.
The next experiment addresses TrkC G623R (Homo sapiens, UniProt Q16288, G623R/S70N). As to conditions: mutant TrkC G623R enzyme; 22° C., 60 minutes.
For a further experiment, the target named is TrkB WT (Homo sapiens, UniProt Q16620). As to conditions: wild-type TrkB enzyme; 22° C., 60 minutes.
The target in another experiment is TrkC F617L (Homo sapiens, UniProt Q16288, F617L/S70N). As to conditions: mutant TrkC F617L enzyme; 22° C., 60 minutes.
Another experiment concerns the target TrkB G623R (Homo sapiens, UniProt Q16620, G623R). As to conditions: mutant TrkB G623R enzyme; 22° C., 60 minutes.
For another experiment, the target named is TrkA F589L (Homo sapiens, UniProt P04629, F589L). As to conditions: mutant TrkA F589L enzyme; 22° C., 60 minutes.
The target in the next experiment is TrkA G595R (Homo sapiens, UniProt P04629, G595R). Particulars: mutant TrkA G595R enzyme; 22° C., 60 minutes.
The next experiment deals with TrkA WT (Homo sapiens, UniProt P04629). Particulars: wild-type TrkA enzyme; 22° C., 60 minutes.
The next experiment deals with TrkA G667S (Homo sapiens, UniProt P04629, G667S). Particulars: mutant TrkA G667S enzyme; 22° C., 60 minutes.
The next experiment has as its target TrkA G667C (Homo sapiens, UniProt P04629, G667C). Particulars: mutant TrkA G667C enzyme; 22° C., 60 minutes.
The target in a further experiment is TrkA V573M (Homo sapiens, UniProt P04629, V573M). Particulars: mutant TrkA V573M enzyme; 22° C., 60 minutes.

Experimental findings from patent US10370727B2, “Point mutations in TRK inhibitor-resistant cancer and methods relating to the same” (Loxo Oncology, Inc., priority 2015, dated 2019) are described below.

As a reminder, the IC50 is the point on the concentration scale where inhibition reaches its midpoint. A low value points to higher potency.

Sequence of TrkC WT (Q16288 32-839 S70N): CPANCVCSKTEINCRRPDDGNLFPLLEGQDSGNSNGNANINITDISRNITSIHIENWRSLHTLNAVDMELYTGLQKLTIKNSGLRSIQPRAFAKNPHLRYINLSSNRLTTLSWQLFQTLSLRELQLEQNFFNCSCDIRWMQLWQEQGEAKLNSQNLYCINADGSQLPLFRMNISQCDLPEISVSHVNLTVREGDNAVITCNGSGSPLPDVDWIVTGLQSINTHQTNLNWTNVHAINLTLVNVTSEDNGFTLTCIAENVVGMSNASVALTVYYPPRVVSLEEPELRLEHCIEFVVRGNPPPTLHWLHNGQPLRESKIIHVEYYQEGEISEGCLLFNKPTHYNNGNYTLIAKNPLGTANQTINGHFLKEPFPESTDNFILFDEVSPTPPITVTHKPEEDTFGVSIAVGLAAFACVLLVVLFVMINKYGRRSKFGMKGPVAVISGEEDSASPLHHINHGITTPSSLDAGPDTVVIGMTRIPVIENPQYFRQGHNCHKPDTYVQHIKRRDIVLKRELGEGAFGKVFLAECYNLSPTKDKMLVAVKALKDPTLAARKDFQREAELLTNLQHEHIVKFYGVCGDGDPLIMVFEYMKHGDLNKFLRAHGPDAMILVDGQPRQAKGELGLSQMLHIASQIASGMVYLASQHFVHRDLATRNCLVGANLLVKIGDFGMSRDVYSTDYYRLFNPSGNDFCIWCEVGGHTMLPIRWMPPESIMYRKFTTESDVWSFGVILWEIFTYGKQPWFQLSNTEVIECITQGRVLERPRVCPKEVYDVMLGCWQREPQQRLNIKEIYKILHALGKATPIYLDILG
Sequence of TrkB G623R (Q16620 32-822 G623R): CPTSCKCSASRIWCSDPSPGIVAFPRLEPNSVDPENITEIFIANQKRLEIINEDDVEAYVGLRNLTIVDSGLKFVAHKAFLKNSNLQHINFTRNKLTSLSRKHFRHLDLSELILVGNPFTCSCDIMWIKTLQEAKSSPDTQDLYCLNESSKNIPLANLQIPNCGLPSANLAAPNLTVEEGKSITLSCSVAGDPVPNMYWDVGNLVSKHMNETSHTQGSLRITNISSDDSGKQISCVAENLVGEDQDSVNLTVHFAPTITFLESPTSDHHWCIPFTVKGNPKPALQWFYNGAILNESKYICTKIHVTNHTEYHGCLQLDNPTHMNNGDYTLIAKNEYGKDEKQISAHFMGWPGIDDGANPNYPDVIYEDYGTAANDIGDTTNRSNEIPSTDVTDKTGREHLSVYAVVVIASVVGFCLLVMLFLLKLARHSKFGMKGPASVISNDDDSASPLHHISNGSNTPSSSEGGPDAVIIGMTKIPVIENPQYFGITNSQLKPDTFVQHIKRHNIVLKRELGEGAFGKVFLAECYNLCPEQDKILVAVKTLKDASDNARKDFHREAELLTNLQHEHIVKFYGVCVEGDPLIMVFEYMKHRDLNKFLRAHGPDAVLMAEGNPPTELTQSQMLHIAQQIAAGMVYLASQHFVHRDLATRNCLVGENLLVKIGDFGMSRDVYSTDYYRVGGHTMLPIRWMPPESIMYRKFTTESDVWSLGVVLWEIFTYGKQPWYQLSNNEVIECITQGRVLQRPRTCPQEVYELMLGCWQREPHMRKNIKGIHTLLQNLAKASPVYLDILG
Sequence of TrkC G623R (Q16288 32-839 S70N/G623R): as the sequence (Q16288 32-839 S70N) above, with G592R counted along it
Sequence of TrkA WT (P04629 33-796): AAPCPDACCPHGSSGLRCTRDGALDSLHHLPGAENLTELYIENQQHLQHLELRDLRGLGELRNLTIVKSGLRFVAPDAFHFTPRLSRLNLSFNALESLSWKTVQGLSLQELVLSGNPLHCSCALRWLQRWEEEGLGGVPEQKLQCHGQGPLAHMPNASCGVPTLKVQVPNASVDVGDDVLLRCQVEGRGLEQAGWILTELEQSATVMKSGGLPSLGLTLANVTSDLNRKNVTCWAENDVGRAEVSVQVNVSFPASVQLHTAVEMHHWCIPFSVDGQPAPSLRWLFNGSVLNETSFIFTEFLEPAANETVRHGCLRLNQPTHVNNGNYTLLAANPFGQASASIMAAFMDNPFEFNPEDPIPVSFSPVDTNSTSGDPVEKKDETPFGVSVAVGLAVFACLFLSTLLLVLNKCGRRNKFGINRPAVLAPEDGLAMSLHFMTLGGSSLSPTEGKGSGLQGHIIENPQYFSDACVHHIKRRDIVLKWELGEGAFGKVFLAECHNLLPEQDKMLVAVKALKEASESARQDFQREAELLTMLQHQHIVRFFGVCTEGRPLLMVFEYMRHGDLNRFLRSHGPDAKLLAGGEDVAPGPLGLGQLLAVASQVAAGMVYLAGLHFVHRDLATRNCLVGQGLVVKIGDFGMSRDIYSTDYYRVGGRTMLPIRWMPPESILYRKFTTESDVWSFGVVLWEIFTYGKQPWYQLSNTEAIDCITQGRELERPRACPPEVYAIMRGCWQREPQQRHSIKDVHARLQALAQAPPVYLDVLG
Sequence of TrkA G595R (P04629 33-796 G595R): as the sequence (P04629 33-796) above, with G563R counted along it
Sequence of TrkA F589L (P04629 33-796 F589L): as the sequence (P04629 33-796) above, with F557L counted along it
Sequence of TrkC F617L (Q16288 32-839 S70N/F617L): as the sequence (Q16288 32-839 S70N) above, with F586L counted along it
Sequence of TrkA G667C (P04629 33-796 G667C): as the sequence (P04629 33-796) above, with G635C counted along it
Sequence of TrkA V573M (P04629 33-796 V573M): as the sequence (P04629 33-796) above, with V541M counted along it
Sequence of TrkA G667S (P04629 33-796 G667S): as the sequence (P04629 33-796) above, with G635S counted along it
Sequence of TrkB WT (Q16620 32-822): as the sequence (Q16620 32-822 G623R) above, with R592G counted along it

`O=C(Nc1cnc2ccc(N3CCC[C@@H]3c3cc(F)ccc3F)nn12)N1CC(O)C1` [Compound 1, (R)-N-(6-(2-(2,5-difluorophenyl)pyrrolidin-1-yl)imidazo[1,2-b]pyridazin-3-yl)-3-hydroxyazetidine-1-carboxamide]: the half-inhibitory concentration (IC50) was less than 2.5 nM against TrkC WT; 29.3 nM against TrkC G623R; 5.7 nM against TrkB WT; 58 nM on TrkC F617L; 59.7 nM against TrkB G623R.
The corresponding values for `CN(C)C(=O)Nc1cnc2ccc(N3CCC[C@@H]3c3cc(F)ccc3F)nn12` [Compound 2, (R)-3-(6-(2-(2,5-difluorophenyl)pyrrolidin-1-yl)imidazo[1,2-b]pyridazin-3-yl)-1,1-dimethylurea] are less than 2.5 nM, 23.1 nM, 4.5 nM, 37.6 nM and 34.1 nM.
Turning to `NC(=O)Nc1cnc2ccc(N3CCC[C@@H]3c3cc(F)ccc3F)nn12` [Compound 3, (R)-1-(6-(2-(2,5-difluorophenyl)pyrrolidin-1-yl)imidazo[1,2-b]pyridazin-3-yl)urea], the IC50 against TrkC WT came to 4.5 nM; against TrkC G623R, 55.7 nM; at TrkB WT it was 11.9 nM; on TrkC F617L it was 273 nM; against TrkB G623R, 90 nM.
As to `CNC(=O)Nc1cnc2ccc(N3CCC[C@@H]3c3cc(F)ccc3F)nn12` [Compound 4, (R)-1-(6-(2-(2,5-difluorophenyl)pyrrolidin-1-yl)imidazo[1,2-b]pyridazin-3-yl)-3-methylurea], the IC50 against TrkC WT was 3.1 nM; against TrkC G623R it was 70.8 nM; against TrkB WT, 10.6 nM; against TrkC F617L, 177 nM; against TrkB G623R, 132 nM.
Turning to `O=C(Nc1cnn2ccc(N3CCC[C@@H]3c3cc(F)ccc3F)nc12)N1CC(O)C1` [Compound 5, (R)-N-(5-(2-(2,5-difluorophenyl)pyrrolidin-1-yl)pyrazolo[1,5-a]pyrimidin-3-yl)-3-hydroxyazetidine-1-carboxamide], the 50% inhibitory concentration (IC50) at TrkC WT is less than 2.5 nM; on TrkA F589L, 232 nM; against TrkC G623R, 95 nM; on TrkB WT, 5.9 nM; against TrkA G595R, 84.6 nM; against TrkA WT, 1.1 nM. Further, the IC50 was 154 nM against TrkC F617L; 38.5 nM at TrkA G667S; 141 nM against TrkA G667C; 152 nM against TrkA V573M; 132 nM at TrkB G623R.
Regarding `CN(CCO)C(=O)Nc1cnc2ccc(N3CCC[C@@H]3c3cc(F)ccc3F)nn12` [Compound 6, (R)-3-(6-(2-(2,5-difluorophenyl)pyrrolidin-1-yl)imidazo[1,2-b]pyridazin-3-yl)-1-(2-hydroxyethyl)-1-methylurea], the IC50 against TrkC WT is less than 2.5 nM; against TrkC G623R, 24.1 nM; at TrkB WT it was 5 nM; at TrkC F617L, 49.7 nM; against TrkB G623R, 27.5 nM.
Consider `CC1(O)CN(C(=O)Nc2cnc3ccc(N4CCC[C@@H]4c4cc(F)ccc4F)nn23)C1` [Compound 7, (R)-N-(6-(2-(2,5-difluorophenyl)pyrrolidin-1-yl)imidazo[1,2-b]pyridazin-3-yl)-3-hydroxy-3-methylazetidine-1-carboxamide], for which the IC50 against TrkC WT is less than 2.5 nM; against TrkC G623R it was 22.7 nM; at TrkB WT it was 7 nM; at TrkC F617L, 42.5 nM; against TrkB G623R, 47.9 nM.
Regarding `CN(C)C(=O)Nc1cnn2ccc(N3CCC[C@@H]3c3cc(F)ccc3F)nc12` [Compound 8, (R)-3-(5-(2-(2,5-difluorophenyl)pyrrolidin-1-yl)pyrazolo[1,5-a]pyrimidin-3-yl)-1,1-dimethylurea], the half-maximal inhibitory concentration (IC50) on TrkC WT was less than 2.5 nM; against TrkA F589L, 154 nM; on TrkC G623R, 54.9 nM; at TrkB WT, 5 nM; against TrkA G595R, 49.6 nM; against TrkA WT, 0.9 nM. Further, the IC50 against TrkC F617L worked out at 67.1 nM; against TrkA G667S, 19.7 nM; on TrkA G667C, 84.2 nM; against TrkA V573M it was 129 nM; against TrkB G623R, 64.6 nM.
For the molecule `O=C(Nc1cnn2ccc(N3CCC[C@@H]3c3cc(F)ccc3Cl)nc12)N1CC(O)C1` [Compound 9, (R)-N-(5-(2-(2-chloro-5-fluorophenyl)pyrrolidin-1-yl)pyrazolo[1,5-a]pyrimidin-3-yl)-3-hydroxyazetidine-1-carboxamide], the IC50 on TrkC WT was less than 2.5 nM; on TrkA F589L, 90.7 nM; on TrkC G623R it was 92.6 nM; at TrkB WT, 4.6 nM; against TrkA G595R, 91.9 nM; against TrkA WT, 0.8 nM. Also, the IC50 against TrkC F617L was found to be 66.5 nM; on TrkA G667S, 21.6 nM; at TrkA G667C, 76.5 nM; at TrkA V573M, 106 nM; at TrkB G623R it was 104 nM.
Consider `CC1(O)CN(C(=O)Nc2cnn3ccc(N4CCC[C@@H]4c4cc(F)ccc4Cl)nc23)C1` [Compound 10, (R)-N-(5-(2-(2-chloro-5-fluorophenyl)pyrrolidin-1-yl)pyrazolo[1,5-a]pyrimidin-3-yl)-3-hydroxy-3-methylazetidine-1-carboxamide], for which the IC50 against TrkC WT is less than 2.5 nM; against TrkA F589L, 103 nM; against TrkC G623R it was 101 nM; against TrkB WT it was 6.5 nM; against TrkA G595R, 107 nM; against TrkA WT it was 0.9 nM. Moreover, the concentration for half-maximal inhibition (IC50) amounted to 80.1 nM against TrkC F617L; 27 nM at TrkA G667S; 89.2 nM against TrkA G667C; 105 nM at TrkA V573M; 150 nM at TrkB G623R.
Take `O=C(Nc1cnn2ccc(N3CCC[C@@H]3c3cccc(F)c3)nc12)N1CC(O)C1` [Compound 11, (R)-N-(5-(2-(3-fluorophenyl)pyrrolidin-1-yl)pyrazolo[1,5-a]pyrimidin-3-yl)-3-hydroxyazetidine-1-carboxamide]: the IC50 amounted to 4.4 nM on TrkC WT; 1080 nM against TrkA F589L; 446 nM on TrkC G623R; 19 nM against TrkB WT; 561 nM against TrkA G595R; 6.9 nM at TrkA WT. Moreover, the IC50 on TrkC F617L turned out to be 476 nM; against TrkA G667S, 275 nM; against TrkA G667C, 830 nM; on TrkA V573M it was 1200 nM; against TrkB G623R, 671 nM.
In the case of `NC(=O)c1cnn2ccc(N3CCC[C@@H]3c3cc(F)ccc3F)nc12` [Compound 12, (R)-5-(2-(2,5-difluorophenyl)pyrrolidin-1-yl)pyrazolo[1,5-a]pyrimidine-3-carboxamide], the IC50 on TrkC WT is less than 2.5 nM; on TrkA F589L it was 21 nM; at TrkC G623R, 1.6 nM; at TrkB WT, 3.3 nM; against TrkA G595R it was 1 nM; against TrkA WT, less than 0.5 nM. For the same molecule, the 50% inhibitory concentration (IC50) against TrkC F617L turned out to be 9.9 nM; against TrkA G667S, 3.6 nM; at TrkA G667C, 15.6 nM; at TrkA V573M, 14.9 nM; at TrkB G623R, 1.3 nM.
With `O=C(NC1CC1)c1cnn2ccc(N3CCC[C@@H]3c3cncc(F)c3)nc12` [Compound 13, (R)-N-cyclopropyl-5-(2-(5-fluoro-pyridin-3-yl)pyrrolidin-1-yl)pyrazolo [1,5-a]pyrimidine-3-carboxamide], the IC50 on TrkC WT was less than 2.5 nM; against TrkA F589L it was 37.2 nM; on TrkC G623R it was 3.1 nM; at TrkB WT, 3.5 nM; against TrkA G595R it was 3.3 nM; at TrkA WT, less than 0.5 nM. The IC50 at TrkC F617L came out at 8.7 nM; on TrkA G667S, 4.1 nM; against TrkA G667C, 32.4 nM; against TrkA V573M it was 20.9 nM; at TrkB G623R it was 2.7 nM.
`CONC(=O)c1cnn2ccc(N3CCC[C@@H]3c3cc(F)cnc3OC)nc12` [Compound 14, (R)-5-(2-(5-fluoro-2-methoxypyridin-3-yl)pyrrolidin-1-yl)-N-methoxy-pyrazolo[1,5-a]pyrimidine-3-carboxamide]: the half-inhibitory concentration (IC50) against TrkC WT was less than 2.5 nM; at TrkA F589L, 14.8 nM; against TrkC G623R it was 2.7 nM; against TrkB WT, 4.4 nM; against TrkA G595R, 1.5 nM; on TrkA WT, less than 0.5 nM. For the same molecule, the IC50 at TrkC F617L amounted to 12.4 nM; at TrkA G667S it was 2.8 nM; against TrkA G667C, 9 nM; against TrkA V573M, 12.1 nM; against TrkB G623R it was 1.5 nM.
As to `CC1(NC(=O)c2cnn3ccc(N4CCC[C@@H]4c4cncc(F)c4)nc23)CC1` [Compound 15, (R)-5-(2-(5-fluoropyridin-3-yl)pyrrolidin-1-yl)-N-(1-methylcyclopropyl)pyrazolo [1,5-a]pyrimidine-3-carboxamide], the half-maximal inhibitory concentration (IC50) on TrkC WT is less than 2.5 nM; on TrkA F589L, 7.3 nM; on TrkC G623R, 1.7 nM; against TrkB WT it was less than 2.5 nM; at TrkA G595R it was 1.6 nM; against TrkA WT, less than 0.5 nM. The 50% inhibitory concentration (IC50) against TrkC F617L was less than 5 nM; against TrkA G667S, 1.4 nM; against TrkA G667C it was 8.1 nM; on TrkA V573M, 6.3 nM; against TrkB G623R it was 1.6 nM.
